Data from patent US20100137449A1, “SUBSTITUTED 1,3-CYCLOPENTADIONE MULTI-TARGET PROTEIN KINASE MODULATORS OF CANCER, ANGIOGENESIS AND THE INFLAMMATORY PATHWAYS ASSOCIATED THEREWITH” (METAPROTEOMICS, LLC, priority 2007, published 2010).

Legend:
Experiment in all cases: KinaseProfiler Assay
[1] = molecular target: GSK3β(h) (Homo sapiens, UniProt P49841)
[2] = molecular target: T1, Flt3(D835Y)(h) (Homo sapiens, UniProt P36888, D835Y)
T1 sequence (P36888 27-993 D835Y): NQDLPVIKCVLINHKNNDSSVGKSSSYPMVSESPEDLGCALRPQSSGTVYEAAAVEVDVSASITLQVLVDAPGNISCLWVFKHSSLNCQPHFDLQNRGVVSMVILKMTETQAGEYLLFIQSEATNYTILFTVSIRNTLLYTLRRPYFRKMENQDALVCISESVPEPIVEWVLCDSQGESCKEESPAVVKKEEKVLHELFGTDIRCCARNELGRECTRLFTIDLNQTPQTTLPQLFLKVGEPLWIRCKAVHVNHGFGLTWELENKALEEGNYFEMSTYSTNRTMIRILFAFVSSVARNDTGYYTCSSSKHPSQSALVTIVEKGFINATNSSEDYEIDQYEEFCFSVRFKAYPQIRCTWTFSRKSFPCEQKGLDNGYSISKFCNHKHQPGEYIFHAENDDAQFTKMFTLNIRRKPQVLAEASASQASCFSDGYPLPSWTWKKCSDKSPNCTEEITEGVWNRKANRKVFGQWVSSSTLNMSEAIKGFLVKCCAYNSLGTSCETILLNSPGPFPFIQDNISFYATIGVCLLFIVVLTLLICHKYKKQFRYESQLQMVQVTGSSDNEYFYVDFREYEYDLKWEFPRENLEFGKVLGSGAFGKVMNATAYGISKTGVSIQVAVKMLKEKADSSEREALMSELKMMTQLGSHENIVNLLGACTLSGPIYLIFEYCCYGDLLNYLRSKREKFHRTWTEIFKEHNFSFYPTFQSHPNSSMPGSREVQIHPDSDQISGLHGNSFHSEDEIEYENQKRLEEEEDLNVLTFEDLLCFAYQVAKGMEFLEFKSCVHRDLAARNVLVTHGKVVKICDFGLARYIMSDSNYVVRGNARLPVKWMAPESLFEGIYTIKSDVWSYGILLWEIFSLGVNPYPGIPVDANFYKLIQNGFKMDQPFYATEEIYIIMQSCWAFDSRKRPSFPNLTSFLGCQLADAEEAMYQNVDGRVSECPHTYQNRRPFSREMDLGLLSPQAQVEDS

[3] = molecular target: ROCK-I(h) (Homo sapiens, UniProt Q13464)
ROCK-I(h), sequence (Q13464 whole entry): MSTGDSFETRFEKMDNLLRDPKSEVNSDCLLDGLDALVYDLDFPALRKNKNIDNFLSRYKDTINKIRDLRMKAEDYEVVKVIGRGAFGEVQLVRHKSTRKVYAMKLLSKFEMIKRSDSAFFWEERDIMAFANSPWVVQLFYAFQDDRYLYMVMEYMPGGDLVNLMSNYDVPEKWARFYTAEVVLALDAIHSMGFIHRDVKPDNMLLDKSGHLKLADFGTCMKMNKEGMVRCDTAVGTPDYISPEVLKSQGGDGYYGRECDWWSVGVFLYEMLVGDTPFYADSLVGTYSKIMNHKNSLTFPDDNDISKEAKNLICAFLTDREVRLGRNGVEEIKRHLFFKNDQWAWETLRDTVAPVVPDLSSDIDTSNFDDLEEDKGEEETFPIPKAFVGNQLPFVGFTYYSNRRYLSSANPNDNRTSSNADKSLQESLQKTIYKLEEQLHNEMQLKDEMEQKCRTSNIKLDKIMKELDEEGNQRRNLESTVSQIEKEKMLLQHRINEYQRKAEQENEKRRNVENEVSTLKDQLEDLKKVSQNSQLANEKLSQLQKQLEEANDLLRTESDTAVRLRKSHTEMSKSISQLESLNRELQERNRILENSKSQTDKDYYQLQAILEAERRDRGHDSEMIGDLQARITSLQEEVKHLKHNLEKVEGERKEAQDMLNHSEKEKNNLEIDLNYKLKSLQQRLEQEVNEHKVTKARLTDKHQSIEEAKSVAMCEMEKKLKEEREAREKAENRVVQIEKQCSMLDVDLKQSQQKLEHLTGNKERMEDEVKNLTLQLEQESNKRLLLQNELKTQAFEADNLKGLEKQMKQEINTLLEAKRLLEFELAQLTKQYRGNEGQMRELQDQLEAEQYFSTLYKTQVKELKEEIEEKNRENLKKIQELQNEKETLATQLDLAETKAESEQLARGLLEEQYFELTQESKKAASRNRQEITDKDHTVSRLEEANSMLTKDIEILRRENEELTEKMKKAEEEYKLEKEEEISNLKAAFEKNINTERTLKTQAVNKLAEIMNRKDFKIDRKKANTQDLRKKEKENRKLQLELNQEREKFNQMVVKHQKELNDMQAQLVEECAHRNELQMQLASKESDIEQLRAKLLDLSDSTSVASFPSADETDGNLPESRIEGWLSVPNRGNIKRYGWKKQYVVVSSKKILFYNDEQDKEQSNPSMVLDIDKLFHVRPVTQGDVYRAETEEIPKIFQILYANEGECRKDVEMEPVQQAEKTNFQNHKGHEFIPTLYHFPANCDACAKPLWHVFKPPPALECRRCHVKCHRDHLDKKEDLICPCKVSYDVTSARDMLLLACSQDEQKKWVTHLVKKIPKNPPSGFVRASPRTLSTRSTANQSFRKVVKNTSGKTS

[4] = molecular target: MSK2(h) (Homo sapiens, UniProt O75676)
MSK2(h), sequence (O75676 whole entry): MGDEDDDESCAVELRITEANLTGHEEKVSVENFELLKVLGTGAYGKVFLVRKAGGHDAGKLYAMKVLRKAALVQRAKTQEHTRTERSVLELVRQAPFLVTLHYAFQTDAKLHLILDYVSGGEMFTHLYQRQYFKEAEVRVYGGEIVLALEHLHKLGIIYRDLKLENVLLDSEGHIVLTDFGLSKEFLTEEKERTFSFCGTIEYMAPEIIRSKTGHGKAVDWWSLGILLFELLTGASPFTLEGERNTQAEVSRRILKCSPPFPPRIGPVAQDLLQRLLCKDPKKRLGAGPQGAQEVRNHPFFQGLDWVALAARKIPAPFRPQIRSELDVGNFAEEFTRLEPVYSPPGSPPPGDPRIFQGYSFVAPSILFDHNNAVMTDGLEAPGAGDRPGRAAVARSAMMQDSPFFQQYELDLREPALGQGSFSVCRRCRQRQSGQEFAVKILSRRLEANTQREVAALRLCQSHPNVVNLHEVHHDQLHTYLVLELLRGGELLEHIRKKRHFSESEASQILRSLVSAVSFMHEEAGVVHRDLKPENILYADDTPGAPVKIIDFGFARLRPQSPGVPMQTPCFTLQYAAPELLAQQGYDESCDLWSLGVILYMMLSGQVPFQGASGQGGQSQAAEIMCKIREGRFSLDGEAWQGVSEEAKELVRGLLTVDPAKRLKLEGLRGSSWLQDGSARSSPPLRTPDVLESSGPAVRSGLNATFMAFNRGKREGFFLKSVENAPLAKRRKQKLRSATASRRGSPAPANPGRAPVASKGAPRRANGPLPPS

[5] = molecular target: CK1(y)
[6] = molecular target: CHK2(R145W)(h) (Homo sapiens, UniProt O96017, R145W)
CHK2(R145W)(h), sequence (O96017 whole entry R145W): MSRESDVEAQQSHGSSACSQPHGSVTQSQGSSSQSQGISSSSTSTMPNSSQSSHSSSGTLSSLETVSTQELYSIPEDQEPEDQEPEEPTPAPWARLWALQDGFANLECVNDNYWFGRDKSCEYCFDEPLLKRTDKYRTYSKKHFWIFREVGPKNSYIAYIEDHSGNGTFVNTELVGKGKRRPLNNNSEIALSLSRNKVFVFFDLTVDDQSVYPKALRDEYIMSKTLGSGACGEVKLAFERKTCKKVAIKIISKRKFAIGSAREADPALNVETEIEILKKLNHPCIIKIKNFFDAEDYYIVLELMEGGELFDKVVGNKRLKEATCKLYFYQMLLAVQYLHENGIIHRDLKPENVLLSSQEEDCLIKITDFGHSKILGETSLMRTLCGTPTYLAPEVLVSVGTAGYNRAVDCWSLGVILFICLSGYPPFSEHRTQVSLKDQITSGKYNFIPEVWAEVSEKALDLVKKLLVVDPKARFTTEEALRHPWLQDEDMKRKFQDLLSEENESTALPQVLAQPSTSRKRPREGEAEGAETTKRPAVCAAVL

[7] = molecular target: PTK5(h) (Homo sapiens, UniProt P42685)
PTK5(h), sequence (P42685 whole entry): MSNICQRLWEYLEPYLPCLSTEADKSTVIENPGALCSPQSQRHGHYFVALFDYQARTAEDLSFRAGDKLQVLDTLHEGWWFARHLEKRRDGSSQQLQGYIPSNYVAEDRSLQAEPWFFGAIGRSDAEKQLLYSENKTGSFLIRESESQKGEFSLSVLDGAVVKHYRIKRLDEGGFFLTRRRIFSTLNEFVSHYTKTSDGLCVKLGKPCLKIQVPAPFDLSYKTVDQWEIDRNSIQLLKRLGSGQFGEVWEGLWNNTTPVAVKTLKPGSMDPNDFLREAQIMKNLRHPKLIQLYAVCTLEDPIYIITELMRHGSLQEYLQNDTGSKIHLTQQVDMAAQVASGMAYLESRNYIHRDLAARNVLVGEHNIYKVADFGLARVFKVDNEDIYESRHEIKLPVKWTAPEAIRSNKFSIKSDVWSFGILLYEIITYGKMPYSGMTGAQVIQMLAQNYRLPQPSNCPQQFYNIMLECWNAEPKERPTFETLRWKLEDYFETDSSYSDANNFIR

[8] = molecular target: T2, TBK1(h) (Homo sapiens, UniProt Q9UHD2)
T2 sequence (Q9UHD2 1-729): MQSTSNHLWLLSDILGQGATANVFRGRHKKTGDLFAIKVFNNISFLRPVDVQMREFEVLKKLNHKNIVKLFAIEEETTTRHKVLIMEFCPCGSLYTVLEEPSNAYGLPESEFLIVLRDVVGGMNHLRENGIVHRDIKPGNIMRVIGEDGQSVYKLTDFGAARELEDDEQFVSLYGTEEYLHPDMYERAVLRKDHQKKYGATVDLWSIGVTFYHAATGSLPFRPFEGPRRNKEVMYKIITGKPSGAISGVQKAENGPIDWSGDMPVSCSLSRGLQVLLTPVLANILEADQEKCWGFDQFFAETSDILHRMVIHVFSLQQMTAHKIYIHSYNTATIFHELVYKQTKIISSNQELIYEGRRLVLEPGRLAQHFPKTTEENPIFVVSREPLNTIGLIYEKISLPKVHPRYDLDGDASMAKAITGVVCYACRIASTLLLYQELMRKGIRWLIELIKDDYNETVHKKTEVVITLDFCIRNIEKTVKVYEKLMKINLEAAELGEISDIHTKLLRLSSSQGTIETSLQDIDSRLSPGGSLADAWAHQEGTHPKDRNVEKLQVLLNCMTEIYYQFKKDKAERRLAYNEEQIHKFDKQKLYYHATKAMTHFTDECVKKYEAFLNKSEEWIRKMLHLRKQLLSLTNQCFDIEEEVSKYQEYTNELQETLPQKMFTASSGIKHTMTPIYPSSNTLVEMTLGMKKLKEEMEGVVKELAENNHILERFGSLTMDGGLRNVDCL

[9] = molecular target: PKBα(h) (Homo sapiens, UniProt P31749)
PKBα(h), sequence (P31749 whole entry): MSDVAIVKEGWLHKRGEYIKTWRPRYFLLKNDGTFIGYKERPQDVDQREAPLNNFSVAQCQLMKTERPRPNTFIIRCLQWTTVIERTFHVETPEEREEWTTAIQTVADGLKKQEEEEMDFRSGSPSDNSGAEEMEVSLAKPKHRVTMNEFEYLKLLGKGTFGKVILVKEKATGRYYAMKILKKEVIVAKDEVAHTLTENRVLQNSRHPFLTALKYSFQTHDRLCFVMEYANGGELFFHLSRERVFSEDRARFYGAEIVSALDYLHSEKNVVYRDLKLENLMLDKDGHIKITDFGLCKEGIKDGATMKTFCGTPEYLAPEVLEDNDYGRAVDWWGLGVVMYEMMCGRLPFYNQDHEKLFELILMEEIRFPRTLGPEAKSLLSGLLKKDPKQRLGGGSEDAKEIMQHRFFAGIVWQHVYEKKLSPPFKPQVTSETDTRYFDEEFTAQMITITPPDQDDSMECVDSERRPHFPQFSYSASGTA

[10] = molecular target: EGFR(L861Q)(h) (Homo sapiens, UniProt P00533, L861Q)

GSK3β(h), sequence (P49841 whole entry): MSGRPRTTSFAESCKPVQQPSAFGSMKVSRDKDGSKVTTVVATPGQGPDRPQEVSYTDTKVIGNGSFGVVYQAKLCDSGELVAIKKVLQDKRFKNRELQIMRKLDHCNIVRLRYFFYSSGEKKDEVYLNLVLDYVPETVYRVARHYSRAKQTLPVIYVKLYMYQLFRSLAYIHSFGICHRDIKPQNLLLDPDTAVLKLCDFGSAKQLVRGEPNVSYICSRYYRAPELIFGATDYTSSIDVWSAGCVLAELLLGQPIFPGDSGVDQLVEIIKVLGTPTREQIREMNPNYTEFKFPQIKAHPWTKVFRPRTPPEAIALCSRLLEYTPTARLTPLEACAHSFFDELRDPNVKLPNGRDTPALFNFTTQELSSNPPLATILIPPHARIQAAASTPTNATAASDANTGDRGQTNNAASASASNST

SMILES: CC(C)CCC(=O)[C@]1(O)C(O)=C(C(=O)C(C)C)C(=O)[C@H]1CCC(C)C [TH2, tetrahydroiso-cohumulone]
- kinase inhibition ([1]; 1 μg/ml): 98% of control
- kinase inhibition ([1]; 5 μg/ml): 86% of control
- kinase inhibition ([1]; 25 μg/ml): 55% of control
- kinase inhibition ([1]; 50 μg/ml): 44% of control
- kinase inhibition ([1]; 100 μg/ml): 40% of control
- kinase inhibition ([2]; 1 μg/ml): 108% of control
- kinase inhibition ([2]; 5 μg/ml): 116% of control
- kinase inhibition ([2]; 25 μg/ml): 102% of control
- kinase inhibition ([2]; 50 μg/ml): 105% of control
- kinase inhibition ([2]; 100 μg/ml): 98% of control
- kinase inhibition ([3]; 1 μg/ml): 110% of control
- kinase inhibition ([3]; 5 μg/ml): 111% of control
- kinase inhibition ([3]; 25 μg/ml): 110% of control
- kinase inhibition ([3]; 50 μg/ml): 100% of control
- kinase inhibition ([3]; 100 μg/ml): 88% of control
- kinase inhibition ([4]; 1 μg/ml): 99% of control
- kinase inhibition ([4]; 5 μg/ml): 94% of control
- kinase inhibition ([4]; 25 μg/ml): 70% of control
- kinase inhibition ([4]; 50 μg/ml): 51% of control
- kinase inhibition ([4]; 100 μg/ml): 37% of control
- kinase inhibition ([5]; 25 μg/ml): 110% of control
- kinase inhibition ([5]; 50 μg/ml): 110% of control
- kinase inhibition ([5]; 100 μg/ml): 100% of control
- kinase inhibition ([6]; 1 μg/ml): 110% of control
- kinase inhibition ([6]; 5 μg/ml): 112% of control
- kinase inhibition ([6]; 25 μg/ml): 99% of control
- kinase inhibition ([6]; 50 μg/ml): 86% of control
- kinase inhibition ([6]; 100 μg/ml): 80% of control
- kinase inhibition ([7]; 1 μg/ml): 116% of control
- kinase inhibition ([7]; 5 μg/ml): 105% of control
- kinase inhibition ([7]; 25 μg/ml): 113% of control
- kinase inhibition ([7]; 50 μg/ml): 112% of control
- kinase inhibition ([7]; 100 μg/ml): 116% of control
- kinase inhibition ([8]; 1 μg/ml): 108% of control
- kinase inhibition ([8]; 5 μg/ml): 107% of control
- kinase inhibition ([8]; 25 μg/ml): 97% of control
- kinase inhibition ([8]; 50 μg/ml): 86% of control
- kinase inhibition ([8]; 100 μg/ml): 70% of control
- kinase inhibition ([9]; 1 μg/ml): 123% of control
- kinase inhibition ([9]; 5 μg/ml): 130% of control
- kinase inhibition ([9]; 25 μg/ml): 126% of control
- kinase inhibition ([9]; 50 μg/ml): 118% of control
- kinase inhibition ([9]; 100 μg/ml): 79% of control
- kinase inhibition ([10]; 1 μg/ml): 98% of control
- kinase inhibition ([10]; 5 μg/ml): 91% of control
- kinase inhibition ([10]; 25 μg/ml): 94% of control
- kinase inhibition ([10]; 50 μg/ml): 99% of control
- kinase inhibition ([10]; 100 μg/ml): 93% of control
